Results reported in US9120774B2 (University of Kansas, priority 2009, dated 2015).
Like-named read-outs stand apart in the source and are kept apart here.

How the values were obtained:
[1] = tested on: Hsp90, androgen receptor and AKT in LNCaP prostate cancer cells; assay: Western blot of Hsp90 and client proteins (AR, AKT) in LNCaP cells; format: cell-based; conditions: 24 hours
Method: FIG. 3 (top panel) is a western blot analysis of prostate cancer LNCaP cells treated with KU-1/A4. The bottom panel is a western blot analysis of prostate cancer LAPC-4 cells incubated with KU-1/A4. Actin was used as a control in both assays. […] Western blot analysis of the effects of KU-1/A4 on Hsp90 client proteins in prostate cancer LNCaP cells. Cells were treated with varying concentrations of KU-1/A4 for 24 hours and probed for the androgen receptor (“AR”), protein kinase […] (“AKT”), Hsp90, and actin.
The steroid hormone receptors are also dependent upon the Hsp90 protein folding machinery for activation and hormone binding. To determine whether KU-1/A4 had similar effects on the androgen receptor, KU-1/A4 was tested in both a mutated androgen receptor-dependent prostate cancer cell line (LNCaP) and a wild type androgen receptor prostate cancer cell line (LAPC-4). More specifically, the prostate cancer cells were grown in RPMI with 10% fetal calf serum in a standard fashion. Once the cells had reached near confluence, they were treated with vehicle (DMSO) or varying concentrations of KU-1/A4 ranging from 10 nm to 100 μM for 24 hours. Cells were harvested and cell lysates prepared. […] More specifically, Western Blot analysis protein concentrations in serum samples were determined by the Pierce BCA protein assay kit according to the manufacturer's protocol. […]

[2] = tested on: primary cortical neurons exposed to Aβ25-35; assay: Protection against Aβ-induced toxicity in primary neurons (Live-Dead assay); format: cell-based, rat
Method: In this example, the neuroprotective effects of KU-1/A4 were determined in primary neurons derived from embryonic rat brain exposed to Aβ (10 μM) in the presence or absence of the test compound for 48 hours. The percentage of surviving neurons was determined by labeling with the fluorescent dyes calcein-AM and propidium iodide as previously described. […] The numbers of calcein-labeled live cells and propidium iodide-labeled dead neurons in several fields were visualized via fluorescence microscopy and counted as described.
Briefly, about 10 to 16 brains were removed from fetuses delivered by cesarean section, and the cortices dissected out. The neurons were isolated and suspended in DMEM/F12 supplemented with 10% FBS and plated on sterile dishes or cover slips coated with 10 μg/ml poly-D-lysine and 5 μg/ml mouse laminin. After 24 hours, the serum-containing medium was removed, and neurons were maintained in Neurobasal medium (Gibco) with 2% B-27 supplements (Gibco). Cells were maintained in culture at 37° C. in 5% CO2 and 97% humidity for 7 to 8 eight days in vitro (DIV) before use. Neurons were exposed to 0.004% DMSO or the indicated concentrations of GA or KU-1/A4 for two hours before the addition of 10 μM Aβ25-35 for either 24 or 48 hours as indicated. Stock solutions of Aβ were prepared in sterile water at a concentration of 1.3 mM and stored at −20° C. Aliquots of the stock solutions were diluted to 1 mM in sterile 50 mM Tris-HCl, pH 7.4, and incubated at 37° C. for 24 hours to promote oligomerization of the peptides prior to treatment of the neurons. The effects of KU-1/A4, GA, Aβ, or the indicated combinations on neuronal viability were determined by monitoring cell survival using the Live-Dead assay as previously described. […] Digital images from 6 fields per dish were captured, and the number of viable (green) and dead (red) cells counted. All experiments were conducted with duplicate dishes from at least two neuronal preparations for each treatment, with about 1,000 cells analyzed/treatment condition. The data are expressed as the fraction of viable cells calculated from the total number of neurons counted under each treatment condition. The significance of differences between cultures exposed to various treatment conditions was determined using Student's t-test.

`CO[C@@H]1[C@@H](O)[C@@H](O)[C@H](Oc2ccc3cc(NC(C)=O)c(=O)oc3c2)OC1(C)C` [KU-1/A4, N-(7-((2R,3R,4S,5R)-3,4-dihydroxy-5-methoxy-6,6-dimethyl-tetrahydro-2H-pyran-2-yloxy)-2-oxo-2H-chromen-3-yl)acetamide] was tested, and the “concentration at which degradation of client proteins AR and AKT occurs” value [1] was 1 µM, the “lowest concentration inducing Hsp90” value [1] was 10 nM and the “lowest concentration with minor neuroprotective effects” value ([2]; Aβ 10 μM, 48 hours) was 0.5 nM. The “lowest concentration giving (significant) protection of neurons against Aβ” value ([2]; Aβ 10 μM, compound added 2 hours before, viability at 48 hours) was 5 nM, the EC50 ([2]; Rattus norvegicus, Primary cortical neuron, read-out: EC50, prevention of Aβ-induced toxicity, Aβ 10 μM, compound added 2 hours before, viability at 48 hours) was ~6 nM and the EC50 ([2]; read-out: EC50, prevention of Aβ-induced toxicity, Aβ 10 μM, compound added 2 hours before, viability at 48 hours) was 5 nM.
